One may read the melting point as the temperature, or range, at which the solid turns liquid.

One series concerns MCF-7. As to the kind of experiment: In vitro antiproliferative assay, SRB, 72 h. The series is classed as cell-based, human. The settings on record: Homo sapiens, MCF7, breast cancer MCF-7, 72 h, n.a. = not active in the range of concentrations used (up to 100 µM), read-out: IC50 [µM] ± SD [n = 5] MCF-7. The text has this: (§1) The following human cancer cell lines, representing the most common types of cancer, were chosen for evaluation of the antiproliferative activity of the prepared sulfonamides: lung cancer (A549), breast cancer (MCF-7), colon adenocarcinoma (LoVo), and biphenotypic B cell myelomonocytic leukemia (MV4-11). As a reference, the normal mouse fibroblasts cell line (BALB/3T3) was applied. A549, LoVo and BALB/3T3 cell lines were purchased from the ATCC (American Type Culture Collection, Rockville, MD, USA), MCF-7 cell line—from EACC (The European Collection of Cell Cultures), and MV4-11 cell line was obtained from DSMZ (Leibniz Institute—German Collection of Microorganisms and Cell Culture, Braunschweig, Germany). All these lines were maintained at the Hirszfeld Institute of Immunology and Experimental Therapy (IIET) in Wrocław, Poland.
(§2) We used the following culture media: for A549 cell line: the mixture of RPMI 1640 and OptiMEM (1:1) medium (both from Gibco, Scotland, UK)), 2mM L-glutamine, 1mM sodium pyruvate (Sigma-Aldrich Chemie GmbH, Steinheim, Germany) and 5% fetal bovine serum (FBS; HyClone Laboratories, Logan, UT, USA). MCF-7 cells were cultured in Eagle’s medium (IIET, PAS, Wroclaw, Poland), 2mM L-glutamine and 10% of FBS supplemented with 0.8 mg/L of insulin (Sigma-Aldrich Chemie GmbH, Steinheim, Germany). For LoVo cell line, F12K medium was applied (American Type Culture Collection, Rockville, MD, USA-ATCC), with 5% FBS (HyClone Laboratories, Logan, UT, USA). MV4-11 cells were cultured in RPMI 1640/GlutaMax I medium (Gibco, Thermo Fisher Scientific, Leicestershire, UK) with 1 mM sodium pyruvate (Sigma-Aldrich Chemie GmbH, Steinheim, Germany) and 10% FBS (HyClone Laboratories). In case of BALB/3T3 cells, DMEM (Gibco, Thermo Fisher Scientific) supplemented with 2 mM L-glutamine and 5% FBS was used. Antibiotics: 100 U/mL penicillin (Polfa Tarchomin SA, Warsaw, Poland) and 100 µg/mL streptomycin (Sigma-Aldrich Chemie GmbH, Steinheim, Germany) were present in all the culture media; cells were cultured in a humid atmosphere containing 5% CO2 at 37 °C.
(§3) Twenty-four hours before addition of the tested compounds, each cell line was seeded in 96-well plastic plates (Sarstedt, Numbrecht, Germany) in an appropriate medium at 10^4 cells/well density, except MCF7 cell line: 0.75 × 10^4/well, and A549 cell line: 0.25 × 10^4/well. The studied cell lines were subjected to each of the tested sulfonamides at 4 different concentrations in the range of 100–0.1 µg/mL for 72 h. Cisplatin (Teva Pharmaceuticals, Poland) was used as a reference compound, and DMSO (Sigma-Aldrich Chemie GmbH, Steinheim, Germany) served as a solvent control at concentrations equivalent to these applied in the solutions of the tested sulfonamides. MTT assay was performed for leukemic cells, while sulforhodamine B assay (SRB) for the adherent cells.
(§4) After 72 h of incubation, cells were fixed in situ by gently adding of 50 µL per well of ice-cold 50% TCA (trichloroacetic acid, POCh, Gliwice, Poland) and were incubated at 4 °C for one hour. Each well was then washed five times with water, followed by addition of 50 µL of 0.4% solution of SRB (sulforhodamine B, Sigma-Aldrich Chemie GmbH, Steinheim, Germany) in 1% acetic acid (POCh, Gliwice, Poland), and plates were again incubated at RT for 0.5 h. Plates were washed five times with 1% acetic acid to remove the unbound dye. The stained cells were treated with 10 mM TRIS (Tris base, Sigma-Aldrich, Chemie GmbH, Steinheim, Germany). Absorbance at 540 nm in each well was read with Elisa plate reader (BioTek Synergy H4, Swindon, UK) using the Gen5 software.
(§5) The results are shown as average IC50 values (concentration of the compound causing inhibition of cell proliferation by 50%) ± standard deviation. IC50 values were determined using the Prolab-3 system based on Cheburator 0.4, a software developed by Nevozhay. At each concentration, sulfonamides were tested in triplicates in a single experiment. […]

The next series relates to A549. As to the kind of experiment: In vitro antiproliferative assay, SRB, 72 h. The format is cell-based, human. The settings on record: Homo sapiens, lung cancer A549, 72 h, n.a. = not active in the range of concentrations used (up to 100 µM), read-out: IC50 [µM] ± SD [n = 5] A549.
From the text: as §1, §2, §3, §4, §5

In another series the test system is LoVo. As to the kind of experiment: In vitro antiproliferative assay, SRB, 72 h. The format is cell-based, human. The settings on record: Homo sapiens, colon adenocarcinoma LoVo, n.a. = not active in the range of concentrations used (up to 100 µM), read-out: IC50 [µM] ± SD [n = 5] LoVo.
From the text: as §1, §2, §3, §4, §5

Another series concerns MV4-11. As to the kind of experiment: In vitro antiproliferative assay, MTT, 72 h. The series is classed as cell-based, human. The settings on record: Homo sapiens, biphenotypic B cell myelomonocytic leukemia MV4-11, 72 h, n.a. = not active in the range of concentrations used (up to 100 µM), read-out: IC50 [µM] ± SD [n = 5] MV4-11.
In another series the test system is BALB/3T3. As to the kind of experiment: In vitro antiproliferative assay on normal fibroblasts, SRB, 72 h. The series is classed as cell-based, mouse. The settings on record: normal mouse fibroblasts BALB/3T3, 72 h, SRB; n.a. = not active in the range of concentrations used (up to 100 µM); read-out: IC50 [µM] ± SD [n = 5] Balb/3T3.
From the text: as §1, §2, §3, §4, §5

In the case of `C[C@@H](c1ccccc1)N1[C@H]2CC[C@H](C2)[C@H]1CNS(=O)(=O)c1ccc(-c2ccccc2F)cc1` [Compound 11j, 2’-fluoro-N-(((1S,3S,4R)-2-((S)-1-phenylethyl)-2-azabicyclo[2.2.1]heptan-3-yl)methyl)-[1,1’-biphenyl]-4-sulfonamide], the melting point was 95 °C. Further, the IC50 in the series on MCF-7 is 17.3 ± 2.29 µM. For the same compound, the IC50 in the series with A549 was determined as 11.3 ± 0.93 µM. The IC50 in the series with LoVo is 12.4 ± 2.44 µM. In addition, in the series on MV4-11, the IC50 came to 7.15 ± 3.53 µM. In the series with BALB/3T3, the IC50 turned out to be 12.3 ± 1.88 µM.

In turn, `C[C@@H](c1ccccc1)N1C[C@@H](NS(=O)(=O)c2ccc(-c3ccc(F)cc3)cc2)[C@@H]2CC[C@H]1C2` [Compound 9i, 4’-fluoro-N-((1S,4S,5R)-2-((S)-1-phenylethyl)-2-azabicyclo[3.2.1]octan-4-yl)-[1,1’-biphenyl]-4-sulfonamide] returned a melting point of 139 to 140 °C. In the series with MCF-7, the IC50 was 12.7 ± 4.91 µM. Besides, in the series on A549, the IC50 turned out to be 24.4 ± 0.9 µM. Further, the IC50 with LoVo was found to be 13.3 ± 1.55 µM. Moreover, the IC50 in the series with MV4-11 amounted to 12.3 ± 3.25 µM. In addition, the IC50 in the series on BALB/3T3 is 14.3 ± 3.18 µM.

The record behind these values is publication PMC7664408, “Biaryl Sulfonamides Based on the 2-Azabicycloalkane Skeleton—Synthesis and Antiproliferative Activity” (Materials, 2020).
